Experiments:
[1] = pH of maleate of compound A and additive dissolved or suspended in 10 mmol/L KCl solution; format: physicochemical; details: maleate of compound A 1 mg/mL with additive
Procedure: The pH was measured when the maleate of compound A and the additive were dissolved or suspended in a 10 mmol/L KCl solution in such a way as to reach the respective numerical values shown in Table 2 to Table 6.

[2] = Evaluation of degradation material: stress test at 70° C. for 7 days, HPLC; format: physicochemical; details: class of degradation material after 70° C.
Procedure: The prepared solid pharmaceutical composition was subjected to a stress test that it was stored in a thermostat at 70° C. for 7 days. The storage stability was evaluated in terms of the amount of compound A decomposed by the following method.
The above stored solid pharmaceutical composition was adjusted with water/acetonitrile/pH 3.0 phosphate buffer (450:50:1) such that the maleate of compound A had 333 μg/mL and was filtered through a membrane filter to obtain a filtrate. The degradation material of compound A was quantified by high performance liquid chromatography (HPLC). The amount of the degradation material detected at a relative retention time of 0.94 with respect to compound A was quantified as the degradation material of compound A under the following measurement conditions.
(HPLC Measurement Condition)
Evaluation criteria for the degradation material are as follows:
Evaluation was performed in the same manner as described in Examples 1-19 and Comparative Examples 1-14.

OC1CN(CCCOCCc2ccc3sccc3c2)C1 [compound 14, 1-(3-(2-(1-benzothiophen-5-yl)ethoxy)propyl)azetidin-3-ol]
pH [1]: 4.5
Evaluation of degradation material [2]: A (Less than 0.25%)
